In patent publication US8952024B2, “Herbicidal pyrimidone derivatives” (E I du Pont de Nemours and Company, priority 2009, dated 2015):

Key:
Format in all cases: in vivo
[1] = tested on: bermudagrass (Cynodon dactylon); test: Test B pre-/postemergence plant response; settings: for Plant response rating, Bermudagrass: Postemergence; for Bermudagrass plant response rating (0 to 100 scale): postemergence, 0 is no effect, 100 is complete control
Method in brief: (§1)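 Ratings reflect visual comparison with untreated controls 13 to 15 days after application, from 0 (no effect) to 100 (complete control). Application was preemergence to seeded loam/sand soil or postemergence to 1- to 4-leaf plants, with compound in a non-phytotoxic, surfactant-containing solvent.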

[2] = tested on: windgrass (Apera spica-venti); test: Test B postemergence plant response; settings: Postemergence
Excerpt: (§2) At the same time, plants selected from these crop and weed species and also winter barley (Hordeum vulgare), canarygrass (Phalaris minor), chickweed (Stellaria media) and windgrass (Apera spica-venti) were planted in pots containing Redi-Earth® planting medium (Scotts Company, 14111 Scottslawn Road, Marysville, Ohio 43041) comprising spaghnum peat moss, vermiculite, wetting agent and starter nutrients and treated with postemergence applications of some of the test chemicals formulated in the same manner. Plants ranged in height from 2 to 18 cm (1- to 4-leaf stage) for postemergence treatments.
(§3) Treated plants and controls were maintained in a greenhouse for 13 to 15 days, after which time all treated plants were visually evaluated and compared to controls. Plant response ratings, summarized in Table B, are based on a scale of 0 to 100 where 0 is no effect and 100 is complete control. A dash (-) response means no test result.

[3] = tested on: chickweed (Stellaria media); test: Test B postemergence plant response; settings: Postemergence
Excerpt: as §2, §3

[4] = tested on: winter barley (Hordeum vulgare); test: Test B postemergence plant response; settings: for Plant response rating, Barley: Postemergence; for Barley plant response rating (0 to 100 scale): postemergence, 0 is no effect, 100 is complete control
Excerpt: as §2, §3

[5] = tested on: canarygrass (Phalaris minor); test: Test B postemergence plant response; settings: Postemergence
Excerpt: as §2, §3

[6] = tested on: morningglory (Ipomoea coccinea); test: Test B pre-/postemergence plant response; settings: Postemergence
Method in brief: as §1

[7] = 31 g ai/ha, 0 to 100 scale (0 no effect, 100 complete control)
[8] = 125 g ai/ha, scale 0 (no effect) to 100 (complete control), 13 to 15 days
[9] = 250 g ai/ha, scale 0 to 100 (0 no effect, 100 complete control), 13 to 15 days
[10] = 62 g ai/ha, scale 0 to 100 (0 no effect, 100 complete control)
[11] = 125 g ai/ha, scale 0 to 100 (0 no effect, 100 complete control)

`CCCCn1c(-c2ccccc2)ncc(C(=O)C2=C(O)C3CCC(C3)C2=O)c1=O` (stereo not drawn) [Compound 240] was tested, and the “Plant response rating, Bermudagrass” value [1, 7] was 98, the “Plant response rating, Bermudagrass” value [1, 8] was 100 and the “Plant response rating, Bermudagrass” value [1, 9] was 100. For the same compound, the “Plant response rating, Bermudagrass” value [1, 10] was 100, the “Plant response rating, Windgrass” value [2, 7] was 60 and the “Plant response rating, Windgrass” value [2, 8] was 98. For the same compound, the “Plant response rating, Windgrass” value [2, 9] was 98, the “Plant response rating, Windgrass” value [2, 10] was 80 and the “Plant response rating, Chickweed” value [3, 7] was 90. For the same compound, the “Plant response rating, Chickweed” value [3, 8] was 100, the “Plant response rating, Chickweed” value [3, 9] was 100 and the “Plant response rating, Chickweed” value [3, 10] was 98. For the same compound, the “Plant response rating, Barley” value [4, 7] was 5, the “Plant response rating, Barley” value [4, 8] was 15 and the “Plant response rating, Barley” value [4, 9] was 15. The “Plant response rating, Barley” value [4, 10] was 5, the “Plant response rating, Canarygrass” value [5, 7] was 5 and the “Plant response rating, Canarygrass” value [5, 8] was 30. The “Plant response rating, Canarygrass” value [5, 9] was 40 and the “Plant response rating, Canarygrass” value [5, 10] was 5.
With `O=C1CCCC(O)=C1C(=O)c1cnc(-c2ccccc2)n(C2CC[S+]([O-])CC2)c1=O` (mixture of isomers) [Compound 169, 5-[(2-hydroxy-6-oxo-1-cyclohexen-1-yl)carbonyl]-2-phenyl-3-(trans/cis-tetrahydro-1-oxido-2H-thiopyran-4-yl)-4(3H)-pyrimidinone] the “Plant response rating, Morningglory” value ([6]; 16 g ai/ha, 0 to 100 scale) was 95, the “Plant response rating, Morningglory” value [6, 7] was 95 and the “Plant response rating, Morningglory” value [6, 11] was 100. For the same compound, the “Plant response rating, Bermudagrass” value ([1]; 16 g ai/ha, 0 to 100 scale) was 70, the “Bermudagrass plant response rating (0 to 100 scale)” value ([1]; 62 g ai/ha, 13 to 15 days) was 75 and the “Plant response rating, Bermudagrass” value [1, 7] was 70. For the same compound, the “Plant response rating, Bermudagrass” value [1, 11] was 100, the “Plant response rating, Windgrass” value ([2]; 16 g ai/ha, 0 to 100 scale) was 5 and the “Plant response rating, Windgrass” value [2, 7] was 15. The “Plant response rating, Windgrass” value [2, 11] was 55, the “Plant response rating, Chickweed” value ([3]; 16 g ai/ha, 0 to 100 scale) was 90 and the “Plant response rating, Chickweed” value [3, 7] was 100. For the same compound, the “Plant response rating, Chickweed” value [3, 11] was 100, the “Plant response rating, Barley” value ([4]; 16 g ai/ha, 0 to 100 scale) was 0 and the “Barley plant response rating (0 to 100 scale)” value ([4]; 62 g ai/ha, 13 to 15 days) was 0. The “Plant response rating, Barley” value [4, 7] was 0, the “Plant response rating, Barley” value [4, 11] was 0 and the “Plant response rating, Canarygrass” value ([5]; 16 g ai/ha, 0 to 100 scale) was 5. The “Plant response rating, Canarygrass” value [5, 7] was 40 and the “Plant response rating, Canarygrass” value [5, 11] was 80.
With `O=C1CCCC(O)=C1C(=O)c1cnc(C2CC2)n(C2CCCCC2)c1=O` [Compound 160] the “Plant response rating, Morningglory” value [6, 7] was 75, the “Plant response rating, Morningglory” value [6, 11] was 100 and the “Plant response rating, Morningglory” value [6, 9] was 100. For the same compound, the “Bermudagrass plant response rating (0 to 100 scale)” value ([1]; 62 g ai/ha, 13 to 15 days) was 75, the “Plant response rating, Bermudagrass” value [1, 7] was 65 and the “Plant response rating, Bermudagrass” value [1, 11] was 90. For the same compound, the “Plant response rating, Bermudagrass” value [1, 9] was 95, the “Plant response rating, Windgrass” value [2, 7] was 20 and the “Plant response rating, Windgrass” value [2, 11] was 60. The “Plant response rating, Windgrass” value [2, 9] was 80, the “Plant response rating, Chickweed” value [3, 7] was 85 and the “Plant response rating, Chickweed” value [3, 11] was 95. For the same compound, the “Plant response rating, Chickweed” value [3, 9] was 100, the “Barley plant response rating (0 to 100 scale)” value ([4]; 62 g ai/ha, 13 to 15 days) was 30 and the “Plant response rating, Barley” value [4, 7] was 5. The “Plant response rating, Barley” value [4, 11] was 35, the “Plant response rating, Barley” value [4, 9] was 50 and the “Plant response rating, Canarygrass” value [5, 7] was 5. For the same compound, the “Plant response rating, Canarygrass” value [5, 11] was 20 and the “Plant response rating, Canarygrass” value [5, 9] was 35.
